Experiments:
[1] = tested on: Saccharomyces cerevisiae ATCC 9763; settings: carrier on agar surface of 0.6 cm diameter, carrier loading 40 μg; disclosed in U.S. Pat. No. 5,821,233; cited from earlier work
[2] = tested on: Saccharomyces cerevisiae ATCC 9763; test: Microbiological method for determining natamycin release rate from a loaded filter paper disc into seeded agar (inhibition zone); format: physicochemical
Source text: The test used to measure the natamycin release rate has been described in example 1 of this application. Briefly, the sample comprising natamycin is applied to a carrier. The carrier can be any material that provides unlimited water transport. Preferably, the carrier is a filter paper disc, more preferably the filter paper disc used in example 1. Subsequently, the carrier loaded with the natamycin composition is applied to the surface of an agar plate seeded with yeast or fungal cells (in example 1 Saccharomyces cerevisiae cells were used). The agar plate and the carrier are subsequently incubated at a temperature such that the natamycin is released into the agar. (in example 1, the temperature chosen is 6° C.) during 24 hours. After having removed the carrier from the agar plate, the agar plate is incubated under growth permitting conditions for said cells (in example 1, the temperature is 30° C.) during a chosen period. In this case, the period is 24 hours or 48 hours depending on the type of release rate desired to be determined. Finally, inhibition of cell growth in the agar due to the presence of the natamycin, which has been released from the carrier into the agar, is determined. The size of the inhibition zone is a measure of the natamycin released from the sample. […] The discs were then put on agar, which was seeded with the Saccharomyces cerevisiae ATCC 9763. The petri dishes containing the agar were then stored for 24 hours at 6° C. to permit the natamycin to release into the agar. […] As a reference, discs were freshly loaded with a range of known amounts of natamycin dissolved in aqueous methanol. The next day, the sample discs were transferred to new petri dishes containing agar seeded with Saccharomyces cerevisiae. New discs freshly loaded with a range of known quantities of dissolved natamycin were prepared for use as a reference. The new dishes with the sample discs and the new reference were stored at 6° C. for 24 hours and the old dishes containing the released natamycin incubated at 30° C. for 24 hours. The size of the inhibition zone is a measure of the natamycin released from the sample disc. The amount of released natamycin can be calculated by methods know per se. By repeating the procedure, the released natamycin can be measured on a daily basis. Other release time periods may alternatively be chosen. Using the method described in example 1, the release rate profile of the new slow release natamycin was compared to the release rate profile of known commercial natamycin DELVOCID® (DSM, The Netherlands). Suspensions of the natamycin preparations were prepared in such a manner that each suspension contained 800 ppm natamycin as such. 50 μl of each of the respective mixtures was applied on a paper filter disc and the release rate was analysed using the method of example 1.

[3] = Chemical stability (natamycin degradation) in beverages stored at 4° C.; format: physicochemical; settings: for Total degradation: 4° C., 150 to 170 ppm natamycin
Experimental: The release rate of the new slow release natamycin was compared with that of known commercial natamycin DELVOCID® Instant (DSM, The Netherlands) by measuring their chemical stability in various beverages. The natamycin preparations were suspended in beverages to a final concentration of 150 to 170 ppm natamycin. The natamycin containing beverages were stored at 4° C. and the natamycin concentration in the beverage was measured in time.

[4] = Initial release rate, 40 μg carrier loading, 0.6 cm disc, 6° C.

**Q.** Which “Release rate over the first 24 hours” value [1] does the source give for C[C@@H]1C/C=C/C=C/C=C/C=C/[C@H](O[C@@H]2O[C@H](C)[C@@H](O)[C@H](N)[C@@H]2O)C[C@@H]2O[C@](O)(C[C@@H](O)C[C@H]3O[C@@H]3/C=C/C(=O)O1)C[C@H](O)[C@H]2C(=O)O [natamycin] here?
**A.** at least 3 μg/24 hours

**Q.** For C[C@@H]1C/C=C/C=C/C=C/C=C/[C@H](O[C@@H]2O[C@H](C)[C@@H](O)[C@H](N)[C@@H]2O)C[C@@H]2O[C@](O)(C[C@@H](O)C[C@H]3O[C@@H]3/C=C/C(=O)O1)C[C@H](O)[C@H]2C(=O)O [Low release natamycin, natamycin], which “Release rate after 11 days” value ([2]; 5 μg carrier loading) is on record?
**A.** 0.35 μg/24 hours

**Q.** What about the “% decrease in release rate after 9 days” value ([2]; 10 μg carrier loading) of the same compound?
**A.** 35%

**Q.** And the “Release rate after 11 days” value ([2]; 10 μg carrier loading)?
**A.** 0.6 μg/24 hours

**Q.** And the “% decrease in release rate after 9 days” value ([2]; 40 μg carrier loading)?
**A.** 45%

**Q.** What about the “Release rate after 11 days” value ([2]; 40 μg carrier loading) of the same compound?
**A.** 1.2 μg/24 hours

**Q.** What about the “Release rate after 24 hours” value [2, 4] of the same compound?
**A.** <2 μg/24 hours

**Q.** What about the “Release rate after 48 hours” value [2, 4] of the same compound?
**A.** <1.8 μg/24 hours

**Q.** What about the “Release rate compared with DELVOCID” value ([2]; comparison in words) of the same compound?
**A.** lower release rate

**Q.** What about the Total degradation ([3]; Ice tea pH 3.2, 1 week) of the same compound?
**A.** 3.4 ppm

**Q.** And the Total degradation ([3]; Ice tea pH 3.2, 2 weeks)?
**A.** 5.4 ppm

**Q.** And the Total degradation ([3]; Ice tea pH 3.2, 3 weeks)?
**A.** 3.2 ppm

**Q.** And the Total degradation ([3]; Ice tea pH 3.2, 4 weeks)?
**A.** 15.0 ppm

**Q.** What about the Total degradation ([3]; Ice tea pH 3.2, 5 weeks) of the same compound?
**A.** 17.4 ppm

**Q.** What about the “Difference in total degradation (DELVOCID Instant minus slow release natamycin)” value ([3]; Ice tea, 1 week) of the same compound?
**A.** 11.5 ppm

**Q.** And the “Difference in total degradation (DELVOCID Instant minus slow release natamycin)” value ([3]; Ice tea, 2 weeks)?
**A.** 11.1 ppm

**Q.** And the “Difference in total degradation (DELVOCID Instant minus slow release natamycin)” value ([3]; Ice tea, 3 weeks)?
**A.** 12.1 ppm

**Q.** And the “Difference in total degradation (DELVOCID Instant minus slow release natamycin)” value ([3]; Ice tea, 4 weeks)?
**A.** 13.2 ppm

**Q.** What about the “Difference in total degradation (DELVOCID Instant minus slow release natamycin)” value ([3]; Ice tea, 5 weeks) of the same compound?
**A.** 14.3 ppm

**Q.** What about the Total degradation ([3]; Tomato juice pH 4.2, 1 week) of the same compound?
**A.** 5.1 ppm

**Q.** What about the Total degradation ([3]; Tomato juice pH 4.2, 2 weeks) of the same compound?
**A.** 13.1 ppm

**Q.** And the Total degradation ([3]; Tomato juice pH 4.2, 3 weeks)?
**A.** 20.1 ppm

**Q.** And the Total degradation ([3]; Tomato juice pH 4.2, 4 weeks)?
**A.** 23.2 ppm

**Q.** What about the Total degradation ([3]; Tomato juice pH 4.2, 5 weeks) of the same compound?
**A.** 28.9 ppm

**Q.** And the “Difference in total degradation (DELVOCID Instant minus slow release natamycin)” value ([3]; Tomato juice, 1 week)?
**A.** 3.5 ppm

**Q.** What about the “Difference in total degradation (DELVOCID Instant minus slow release natamycin)” value ([3]; Tomato juice, 2 weeks) of the same compound?
**A.** 0.6 ppm

**Q.** What about the “Difference in total degradation (DELVOCID Instant minus slow release natamycin)” value ([3]; Tomato juice, 3 weeks) of the same compound?
**A.** 6.4 ppm

**Q.** And the “Difference in total degradation (DELVOCID Instant minus slow release natamycin)” value ([3]; Tomato juice, 4 weeks)?
**A.** 4.7 ppm

**Q.** What about the “Difference in total degradation (DELVOCID Instant minus slow release natamycin)” value ([3]; Tomato juice, 5 weeks) of the same compound?
**A.** 3.7 ppm

**Q.** And the “Release rate compared with DELVOCID Instant in beverages” value ([3]; tomato juice and ice tea, inferred from degradation, in words)?
**A.** lower

Reference: patent publication US20130309379A1, “Anti-Fungal Composition” (DSM IP ASSETS B.V., priority 2005, published 2013)
